Experimental data taken from US20260062705A1, “TREATMENT FOR OVARIAN CANCER WITH OLIGONUCLEOTIDES TARGETING FIBROBLAST ACTIVATION PROTEIN ALPHA” (UNIVERSITY OF FLORIDA RESEARCH FOUNDATION, INCORPORATED, priority 2022, published 2026).
Where a SMILES comes first, the peptide text is derived from it. The star is where a group is joined. Cbz = O=C(OCc1ccccc1)*; CH2F = FC*

Key:
Type in all cases: cell-based, human
HEY cells = experiment: CCK-8 cell viability assay; conditions: for effect on cell viability: 100 nM for 4 days, FIG. 4D
Description: (§1) Briefly, cells were cultured in 96-well plates and CCK-8 reagent was added to cells. After 2-h incubation at 37° C., absorbance was measured using a Bio-Rad plate reader at 460 nm. In vitro invasion was assayed using Matrigel invasion chamber available from Cell Biolabs Inc (San Diego, CA) according to manufacturer's protocol. Flow cytometry-based cell apoptosis was determined using Dead Cell Apoptosis Kits with Annexin V (Thermo Fisher, Cat #V13242) according to manufacturer's protocol. Lipid raft fractions were prepared using Minute™ Plasma Membrane-Derived Lipid Raft Isolation Kit (Invent Biotechnologies, Plymouth, MN) according to manufacturer's protocol.

OVCAR8 cells = experiment: CCK-8 cell viability assay; conditions: for effect on cell viability: 100 nM for 4 days, FIG. 4D
Description: as §1

[1] = system: FAP-PRKDC co-localization in HEY cells; experiment: Confocal immunofluorescence staining of FAP and PRKDC; conditions: 5 mM MBC for 1 day, FIG. 6E
Description: (§2) Immunofluorescence staining: Cells were plated on coverslips for overnight and then fixed with 4% paraformaldehyde followed by permeabilization with 1% Triton X-100. Cells were washed three times with 1×PBS (Thermo Fisher, Cat #: 10010049). After brief blocking with 1% BSA, cells were incubated with anti-FAP mAb (Cat #sc-65398, Santa Cruz Biotechnology, Santa Cruz, CA) or anti-PRKDC polyclonal antibody (Cat #ab32566, Abcam) for 1 h and then with secondary antibody (Alexa Fluor® 488 and Alexa Fluor® 568) for another hour. Coverslips were mounted on […] using Permount solution (Cat #: P36961, Thermo Fisher) and cell fluorescence staining was viewed with confocal microscopy (Carl Zeiss Vision, LSM510). To locate lipid rafts, recombinant Cholera toxin subunit B conjugated with Alexa Fluor™ 647 (Cat #C34778, Thermo Fisher) was included during incubation with secondary antibody.
(§3) Both FAP and PRKDC have been reported to be present in the lipid rafts with unknown function (13, 14). We investigated whether FAP-PRKDC interaction occurred in lipid rafts. We first isolated lipid fraction from HEY and OVCAR8 cells followed by western blot analysis to detect FAP and PRKDC. As well characterized lipid raft marker caveolin-1, both FAP and PRKDC were readily seen in lipid raft isolates (FIG. 6C). […]

[2] = system: FAP-PRKDC co-localization in OVCAR8 cells; experiment: as above; conditions: 5 mM MBC for 1 day, FIG. 6E
Description: as §2, §3

Row | Molecule | effect on cell viability (HEY cells; HEY cells) | effect on cell viability (OVCAR8 cells; OVCAR8 cells) | also measured
1 | Cc1c(-c2c(-c3ccc(F)o3)sc3ncnc(O[C@H](Cc4ccccc4OCc4ccnn4CC(F)(F)F)C(=O)O)c23)ccc(OCCN2CCN(C)CC2)c1Cl [S63845] | much less inhibitory effect | much less inhibitory effect | –
2 | Methyl-beta-cyclodextrin [MBC] | – | – | FAP-PRKDC co-localization after disruption of lipid rafts [1]: undetectable FAP-PRKDC co-localization; FAP-PRKDC co-localization after disruption of lipid rafts [2]: undetectable FAP-PRKDC co-localization
3 | COCCn1c2c([n+](Cc3cnccn3)c1C)C(=O)c1ccccc1C2=O [YM155] | significant decrease in cell viability | significant decrease in cell viability | –
4 | CC[C@H](NC(=O)[C@H](C)NC)C(=O)N1C[C@@H](O)C[C@H]1Cc1c(-c2[nH]c3cc(F)ccc3c2C[C@@H]2C[C@H](O)CN2C(=O)[C@H](CC)NC(=O)[C@H](C)NC)[nH]c2cc(F)ccc12 [Birinapant] | much less inhibitory effect | much less inhibitory effect | –
5 | CC(C)[C@H](N)C(=O)N1CCC[C@H]1B(O)O [Alabostat, Talabostat] | – | – | effect on survival (HEY cells; HEY cells, 1 mM Batimastat or 1 μM Talabostat alone or in combination, 4 days, FIG. 9): little effect; effect on survival (OVCAR8 cells; OVCAR8 cells, 1 mM Batimastat or 1 μM Talabostat alone or in combination, 4 days, FIG. 9): little effect
6 | COC(=O)C[C@H](NC(=O)[C@H](C)NC(=O)[C@@H](NC(=O)OCc1ccccc1)C(C)C)C(=O)CF [zVAD] (Cbz-Val-Ala-Asp(OMe)-CH2F) | – | – | effect on FAP shRNA-led cell death (HEY cells; HEY cells transduced with FAP shRNA, 10 μM from one day post-infection, total 4 days, FIG. 2E): blocked anti-FAP shRNA-led cell death; effect on FAP shRNA-led cell death (OVCAR8 cells; OVCAR8 cells transduced with FAP shRNA, 10 μM from one day post-infection, total 4 days, FIG. 2E): blocked anti-FAP shRNA-led cell death
